Measured values: patent US20100260830A1, “Liposomal Formulations of Tocopheryl Amides” (priority 2009, published 2010)
Like-named read-outs stand apart in the source and are kept apart here.

How the values were obtained:
Jurkat T cells = test: Mitochondrial membrane potential ΔΨ, flow cytometry with JC-1 probe; assay type: cell-based
Text: FIG. 3 illustrates the effect of selected chromans on mitochondrial membrane potential ΔΨ in vitro. […] Deviations in ΔΨ were estimated by flow cytometry followed by cell staining with the polychromatic JC-1 probe.

[1] = Injection of αTAM dissolved in DMSO or ethanol (Prior Art I); assay type: in vivo, mice
Text: In earlier work to develop a formulation of αTAM for preclinical study, the compound was first dissolved in DMSO or ethanol as has been characteristic of studies of this kind (Weber et al, 2002, Vitamin E succinate is a potent novel antineoplastic agent with high selectivity and cooperativity with tumor necrosis factor-related apoptosis-inducing ligand (Apo2 ligand) in vivo, Clin Cancer Res 8:863-69; Yu et al, 1999, Induction of apoptosis in human breast cancer cells by tocopherols and tocotrienols, Nutr Cancer 33:26-32).

[2] = tested on: human breast cancer cell line MCF-7; test: MTT cytotoxicity IC50; assay type: cell-based; settings: calculated from MTT activity
Description: (§1) IC50 values were calculated from MTT activity (Bank, U et al, 1991, Measurement of cellular activity by means of the MTT-test. Allerg Immunol 37:119-123).

[3] = General toxicity in mice by the Berlin Test; assay type: in vivo; settings: 5 mg/kg in DMSO
Text: The general toxicity of liposomal preparations of αTAM was studied further in mice by the Berlin Test. Untreated mice and mice treated with empty liposomes were used as controls. […] Symptoms including spasms and heavy breathing pointed to neurotoxicity, embolie or anaphylactic reaction. Therefore, we have discontinued experiments that involved the use of non-liposomal formulations of αTAM.

Meso-2 cells = test: IC50 against Meso-2 cells (FIG. 14A); assay type: cell-based; settings: values only in FIG. 14A
Text: In FIG. 14A, esters and amides of the chromanol and N-chroman genera are compared. […] There is a correlation between increased potency and CLogP, where amide lipophilicity is consistently greater than that of the corresponding esters. Other factors of molecular structure also play a role.

[4] = tested on: granulocyte/macrophage colony forming cells (GM-CFC); test: GM-CFC colony formation in vitro; assay type: cell-based, Balb/c mouse; settings: Balb/c bone marrow GM progenitors
Description: FIGS. 8A and 8B are comparative views illustrating the paradoxical effect of the liposomal formulation on non-specific toxicity, here to granulocyte/macrophage colony forming cells (GM-CFC). […] In the left panel, GM progenitors were isolated from Balb/c mouse bone morrow and treated with αTOS (left) or αTAM (right, black bars) at the concentrations shown, the number of colonies was counted and expressed per individual well. In the right panel, Balb/c mice were injected i.p. with the vehicle (40), empty liposomes (41) liposomal αTOS at 100 mg/kg (42), αTAM at 10 mg/kg (43), or αTAM at 25 mg/kg (44), and GM-CFC colonies in femoral bone marrow counted 48 h later (* denotes statistically significant differences with pb0.05 in comparison to control). […] This surprising result is paradoxical, and points to the importance of the formulation vehicle as a technological advance in achieving clinical trials of these compounds.

[5] = tested on: non-malignant cells (e.g. lymphocytes and bone marrow progenitors); test: In vitro models of non-malignant cells; assay type: cell-based
[6] = tested on: mouse melanoma B16F10 cells; test: Cytotoxic effect on melanoma cells in vitro
Description: as §1

Which results are given for `Cc1c(C)c2c(c(C)c1NC(=O)/C=C\C(=O)O)CCC(C)(CCCC(C)CCCC(C)CCCC(C)C)O2` (stereo not drawn) [αTAM, α-tocopheryl maleamide]?
dissipating mitochondrial inner transmembrane potential (Jurkat T cells): potent in dissipating mitochondrial inner transmembrane potential; outcome of one or two injections in DMSO ([1]; Balb/c, C57B1 or FVB/N c-neu mice): caused death of the animals; toxicity of solution in DMSO (or ethanol) ([1]; non-liposomal solution): extremely toxic; IC50 [2]: 13.3 µM; outcome of free compound administered in DMSO [3]: caused rapid death of the animals; cytolytic potency versus the corresponding tocopheryl succinates (Meso-2 cells): markedly increased cytolytic potency; toxicity to GM progenitors in vitro [4]: the compound is toxic in vitro; cytotoxicity to non-malignant cells [5]: cytotoxic to non-malignant cells; tolerated dose (given in liposomal formulation): 500 μg per 20 g mouse; dose feasible for human use (mouse, in vivo): 1.75 g; safe dose (mouse, in vivo): 25 mg/kg; cytotoxic potential (order) [6]: αTAM>αTOM>αTOS>>αTOH

For `Cc1c(C)c2c(c(C)c1NC(=O)CCC(=O)O)CCC(C)(CCCC(C)CCCC(C)CCCC(C)C)O2` (stereo not drawn) [αTAS, α-tocopheryl succinamide], which “dissipating mitochondrial inner transmembrane potential” value (Jurkat T cells) is on record?
The value was “potent in dissipating mitochondrial inner transmembrane potential”.

Which “cytotoxic potential (order)” value [6] does the source give for `Cc1c(C)c2c(c(C)c1O)CC[C@@](C)(CCC[C@H](C)CCC[C@H](C)CCCC(C)C)O2` [αTOH] here?
The value was “No toxicity was observed”.

With tocopheryl succinate [αTOS] as the compound, how does the “cytotoxic potential (order)” value ([6]; B16F10 in vitro) read?
Its value is “αTAM>αTOM>αTOS>>αTOH”.
